Earlier results on two compounds are cited in PMC6843445, “Pharmacokinetic Properties of Fluorescently Labelled Hydroxypropyl-Beta-Cyclodextrin” (Biomolecules, 2019).

Where two headings read alike, the source gives them in different places.

On the set-up of series [1]: method as in PMID 30521943. Conditions: after 30 min; ref [21]; cited from earlier work.
On the set-up of series [2]: method as in PMID 27317368, PMID 20434542. Conditions: HPBCD with different DS; ref [6],[7]; cited from earlier work.
Details of series [3]: method as in ref [4],[27] = [4]; PMID 16018907; doi:10.1016/j.fct.2005.03.007; 4. Gould S. Scott R.C. 2-Hydroxypropyl-beta-cyclodextrin (HP-b-CD): A toxicology review Food Chem. Toxicol. 2005 43 1451 1459 10.1016/j.fct.2005.03.007 16018907 || [27]; 27. Committee for Human Medicinal Products (CHMP), European Medicines Agency Cyclodextrins Used as Excipients. EMA/CHMP/333892/2013 9 10 2017 Available online: http://www.ema.europa.eu/docs/en_GB/docu. Conditions: rats; ref [4],[27]; cited from earlier work.

Details of series [4]: method as in PMID 28803710. Conditions: patients with NPC1, lumbar intrathecal; ref [2]; cited from earlier work.
On the set-up of series [5]: method as in ref [4] = [4]; PMID 16018907; doi:10.1016/j.fct.2005.03.007; 4. Gould S. Scott R.C. 2-Hydroxypropyl-beta-cyclodextrin (HP-b-CD): A toxicology review Food Chem. Toxicol. 2005 43 1451 1459 10.1016/j.fct.2005.03.007 16018907. Conditions: rats, 4–7 days 225 mg/kg/day i.v.; ref [4]; cited from earlier work.
Details of series [6]: method as in ref [4] = [4]; PMID 16018907; doi:10.1016/j.fct.2005.03.007; 4. Gould S. Scott R.C. 2-Hydroxypropyl-beta-cyclodextrin (HP-b-CD): A toxicology review Food Chem. Toxicol. 2005 43 1451 1459 10.1016/j.fct.2005.03.007 16018907. Conditions: dogs; ref [4]; cited from earlier work.
Series [7] deals with Caco-2 cells. Details: method as in PMID 27317368, PMID 20434542. Conditions: HPBCD with different DS; ref [6],[7]; cited from earlier work.
On the set-up of series [8]: method as in ref [4] = [4]; PMID 16018907; doi:10.1016/j.fct.2005.03.007; 4. Gould S. Scott R.C. 2-Hydroxypropyl-beta-cyclodextrin (HP-b-CD): A toxicology review Food Chem. Toxicol. 2005 43 1451 1459 10.1016/j.fct.2005.03.007 16018907. Conditions: rats; ref [4]; cited from earlier work.
Details of series [9]: method as in PMID 22552390. Conditions: rats, subcutaneous long-term, daily dose of 200 mg/kg; ref [8]; cited from earlier work.
Details of series [10]: method as in PMID 23611577. Conditions: pigs, 2 week 0.25–0.5 g/kg/infusion; ref [9]; cited from earlier work.

For the compound “^68Ga-labeled NODAGA-hydroxypropyl-beta-cyclodextrin [^68Ga-NODAGA-HPBCD]”, the “activity in the lung compared to other organs” value in series [1] is recorded as “relatively higher”.
Turning to `CC(O)COC[C@H]1O[C@@H]2O[C@H]3[C@H](O)[C@@H](O)[C@@H](O[C@H]4[C@H](O)[C@@H](O)[C@@H](O[C@H]5[C@H](O)[C@@H](O)[C@@H](O[C@H]6[C@H](O)[C@@H](O)[C@@H](O[C@H]7[C@H](O)[C@@H](O)[C@@H](O[C@H]8[C@H](O)[C@@H](O)[C@@H](O[C@H]1[C@H](O)[C@H]2O)O[C@@H]8COCC(C)O)O[C@@H]7COCC(C)O)O[C@@H]6COCC(C)O)O[C@@H]5COCC(C)O)O[C@@H]4COCC(C)O)O[C@@H]3COCC(C)O` (stereo partly drawn) [HPBCD, 2-Hydroxypropyl-beta-cyclodextrin], the hemolytic activity entry in [2] is “low hemolytic activity”. For the same compound, the “no observed adverse effect levels (NOAELs)” value in series [3] is 50 mg/kg/day. Further, the disease progression result in [4] is recorded as “slowed disease progression”. The lung findings entry in series [5] is “foamy macrophage infiltration of the lung”; in [10], “inflammatory changes in the lung”. In addition, the “organs with the highest HPBCD concentrations” value in [6] is “kidneys and liver”; in series [8], “kidneys and lung”. Further, the “cytotoxicity on Caco-2 cells” value in [7] is on record as “no toxicity”. In addition, the bone effect result in series [9] is “caused bone loss”.
